The record followed here is patent US10781214B2, “Kinase inhibitor against wild-type and mutant EGFR” (PRECEDO PHARMACEUTICALS CO., LTD, priority 2015, dated 2020).

Holding throughout (assay type): cell-based
The test system of assay [1] is BaF3-FL-EGFR-Del19 (stably expressing EGFR delE746_A750 mutant kinase). As to the kind of experiment: Cell growth, Cell Titer-Glo, 72 h: BaF3-FL-EGFR-Del19. To be noted: Mus musculus, BaF3-FL-EGFR-Del19 cells. An excerpt:
In addition, this example further uses: mouse BaF3-TEL-EGFR (stably expressing wild-type EGFR kinase), mouse BaF3-TEL-EGFR-L858R (stably expressing EGFR L858R mutant kinase), mouse BaF3-TEL-EGFR-T790M (stably expressing EGFR T790M mutant kinase), mouse BaF3-FL-EGFR-DeI19 (stably expressing EGFR delE746_A750 mutant kinase), mouse BaF3-FL-EGFR-T790M-L858R (stably expressing EGFR T790M/L858R mutant kinase), mouse BaF3/P210 (stably expressing bcr/abl˜(P210) mutant kinase), mouse BaF3-TEL-ABL-T315I (stably expressing ABLT315I mutant kinase), mouse BaF3-FLT3-ITD (stably expressing FLT3/ITD mutant kinase), mouse BaF3-TEL-JAK2 (stably expressing JAK2 kinase), mouse BaF3-TEL-JAK3 (stably expressing JAK3 kinase), mouse BaF3-TPR-MET (stably expressing MET kinase), mouse BaF3-TEL-BLK (stably expressing BLK kinase), mouse BaF3-TEL-ABL (stably expressing ABL kinase), mouse BaF3-TEL-BMX (stably expressing BMX kinase), mouse BaF3-TEL-ALK (stably expressing ALK kinase). […]
(§1) The cells were incubated for 72 h, and then the number of viable cells was determined via quantitative determination with a microplate reader by using Cell Titer-Glo® (Promega, the USA) Luminescent Cell Viability Assay kit.
Background: Cellular ATP, detected with luciferase, serves as a proxy for viable cell number.

In assay [2] the test system is A549 (expressing wild-type EGFR gene). As to the kind of experiment: Cancer cell growth, Cell Titer-Glo, 72 h: A549. The following applies: Homo sapiens; A549 cells, 72 h; read-out: GI50.
Source text: (§2) Compounds of the present invention were further evaluated for their selectivity in inhibiting proliferation of cancer cells by testing effects of the novel kinase inhibitors on proliferation of cancer cells. In the examples the following cells were selected: human non-small cell lung cancer cell NCI-H1975 (expressing EGFR L858R/T790M double-mutant gene), human-derived non-small cell lung cancer cell PC-9 (expressing EGFR delE746_A750 mutant gene), human-derived non-small cell lung cancer cell HCC827 (expressing EGFR delE746_A750 mutant gene), human lung adenocarcinoma cell HCC4006 (expressing EGFR delE746_A750 mutant gene), human non-small cell lung cancer cell NCI-H3255 (expressing EGFR L858R mutant gene), human skin squamous carcinoma cell A431 (expressing wild-type EGFR gene), human non-small cell lung cancer cell A549 (expressing wild-type EGFR gene), human non-small cell lung cancer cell NCI-H460 (expressing wild-type EGFR gene), human non-small cell lung cancer cell NCI-H2122 (expressing wild-type EGFR gene), Chinese hamster ovary (CHO) cell (Cricetulus griseus, hamster, Chinese, ovary), Chinese hamster lung cell (CHL), mouse pro-B cell BaF3. The cells above were all purchased from (USA).
as §1

In assay [3] the test system is A431 (expressing wild-type EGFR gene). As to the kind of experiment: Cancer cell growth, Cell Titer-Glo, 72 h: A431. To be noted: Homo sapiens, A-431; A431 cells, 72 h; read-out: GI50.
Source text: as §2, §1

In assay [4] the test system is HCC827 (expressing EGFR delE746_A750 mutant gene). As to the kind of experiment: Cancer cell growth, Cell Titer-Glo, 72 h: HCC827. To be noted: Homo sapiens; HCC827 cells, 72 h; read-out: GI50.
Source text: as §2, §1

In assay [5] the test system is BaF3-TEL-EGFR-T790M (stably expressing EGFR T790M mutant kinase). As to the kind of experiment: Cell growth, Cell Titer-Glo, 72 h: BaF3-TEL-EGFR-T790M. To be noted: Mus musculus, BaF3-TEL-EGFR-T790M cells, read-out: GI50.
Source text: (§3) In addition, this example further uses: mouse BaF3-TEL-EGFR (stably expressing wild-type EGFR kinase), mouse BaF3-TEL-EGFR-L858R (stably expressing EGFR L858R mutant kinase), mouse BaF3-TEL-EGFR-T790M (stably expressing EGFR T790M mutant kinase), mouse BaF3-FL-EGFR-DeI19 (stably expressing EGFR delE746_A750 mutant kinase), mouse BaF3-FL-EGFR-T790M-L858R (stably expressing EGFR T790M/L858R mutant kinase), mouse BaF3/P210 (stably expressing bcr/abl˜(P210) mutant kinase), mouse BaF3-TEL-ABL-T315I (stably expressing ABLT315I mutant kinase), mouse BaF3-FLT3-ITD (stably expressing FLT3/ITD mutant kinase), mouse BaF3-TEL-JAK2 (stably expressing JAK2 kinase), mouse BaF3-TEL-JAK3 (stably expressing JAK3 kinase), mouse BaF3-TPR-MET (stably expressing MET kinase), mouse BaF3-TEL-BLK (stably expressing BLK kinase), mouse BaF3-TEL-ABL (stably expressing ABL kinase), mouse BaF3-TEL-BMX (stably expressing BMX kinase), mouse BaF3-TEL-ALK (stably expressing ALK kinase). The above cell lines were all constructed by our laboratory according to the following method: the kinase region sequences of human […], EGFR L858R, EGFR T790M, EGFR delE746_A750, EGFR T790M/L858R, bcr/abl˜(P210), ABL T315I, FLT3/ITD, JAK2, JAK3, MET, BLK, ABL, BMX, ALK were amplified respectively by PCR, inserted respectively into MSCV-Puro vectors harboring N-terminal fragment and/or NPM fragment and/or TPR fragment (Clontech), then the vectors were stably transfected into mouse BaF3 cells by retrovirus methods and growth factor IL-3 was removed, eventually obtaining cell lines that are transferred protein (EGFR, EGFR L858R, EGFR T790M, EGFR delE746_A750, EGFR T790M/L858R, bcr/abl˜(P210), ABL T315I, FLT3/ITD, JAK2, JAK3, MET, BLK, ABL, BMX, ALK)-dependent.
as §1

The subject of assay [6] is NCI-H2122 (expressing wild-type EGFR gene). Description: Cancer cell growth, Cell Titer-Glo, 72 h: NCI-H2122. The following applies: Homo sapiens, NCI-H2122 cells.
Source text: as §2, with “The cells above were all purchased from (USA).” left out
as §1

Assay [7] concerns PC-9 (expressing EGFR delE746_A750 mutant gene). Description: Cancer cell growth, Cell Titer-Glo, 72 h: PC-9. The following applies: Homo sapiens; PC-9 cells, 72 h; read-out: GI50.
Source text: as §2, §1

A further assay deals with mouse pro-B cell BaF3. As to the kind of experiment: Cell growth, Cell Titer-Glo, 72 h: BaF3. To be noted: BaF3 cells, 72 h, read-out: GI50.
Source text: as §2, §1

Assay [8] has as its system BaF3-TEL-EGFR-L858R (stably expressing EGFR L858R mutant kinase). As to the kind of experiment: Cell growth, Cell Titer-Glo, 72 h: BaF3-TEL-EGFR-L858R. The following applies: Mus musculus, BaF3-TEL-EGFR-L858R cells, read-out: GI50.
Source text: as §3, §1

Assay [9] concerns BaF3-FL-EGFR-T790M-L858R (stably expressing EGFR T790M/L858R mutant kinase). Description: Cell growth, Cell Titer-Glo, 72 h: BaF3-FL-EGFR-T790M-L858R. To be noted: Mus musculus, BaF3-FL-EGFR-T790M-L858R cells.
Source text: as §3, §1

Assay [10] concerns BaF3-TEL-EGFR (stably expressing wild-type EGFR kinase). As to the kind of experiment: Cell growth, Cell Titer-Glo, 72 h: BaF3-TEL-EGFR. To be noted: Mus musculus, BaF3-TEL-EGFR cells, read-out: GI50.
Source text: as §3, §1

For assay [11], the system named is NCI-H3255 (expressing EGFR L858R mutant gene). Description: Cancer cell growth, Cell Titer-Glo, 72 h: NCI-H3255. The following applies: Homo sapiens; NCI-H3255 cells, 72 h; read-out: GI50.
Source text: as §2, §1

Assay [12] relates to NCI-H1975 (expressing EGFR L858R/T790M double-mutant gene). As to the kind of experiment: Cancer cell growth, Cell Titer-Glo, 72 h: NCI-H1975. To be noted: Homo sapiens; NCI-H1975 cells, 72 h; read-out: GI50.
Source text: as §2, §1

One may read the GI50 as the concentration at which growth is held to half of that of the control. As for `CCC(=O)N1CCC[C@@H](n2nc(-c3ccc(OCc4cccc(F)c4)c(Cl)c3)c3c(N)ncnc32)C1` [Compound 51, (R)-1-(3-(4-amino-3-(3-chloro-4-((3-fluorobenzyl)oxy)phenyl)-1H-pyrazolo[3,4-d]pyrimidin-1-yl)piperidin-1-yl)propan-1-one], the GI50 is 1.2 µM in assay [1]; above 10 µM in assay [2]; 9 µM in [3]; 3.9 µM in assay [4]; 1.1 µM in assay [5]; 3.9 µM in assay [6]. Further, the GI50 was 3.2 µM in assay [7]; 9.2 µM in the assay with mouse pro-B cell BaF3; 0.94 µM in [8]; 1.7 µM in assay [9]; 3.7 µM in [10]; above 10 µM in assay [11]. The GI50 in [12] amounted to 2.7 µM.
